Key:
[1] = tested on: Lis1+/− cerebellar granule nerve cells; experiment: Migration capability of cerebellar granule nerve cells; type: cell-based, mouse; details: 200 μM, 18-24 hours, FIG. 5
Experimental: Cerebellum tissue fragments of LIS1 gene hetero-deficient and wild-type mice (3-7 days after birth) (10 mice for each group) were crushed by gentle pipetting, and treated with 0.025% trypsin (Gibco, 25200)/0.0013% DNaseI (Sigma, DN-25) at 37° C. for 20 minutes. After centrifugation, a BME culture solution (Gibco, 21010) containing 10% equine blood serum was added for washing, and the reaction was stopped. Thereafter, the reaction liquid was subjected to pipetting by adding a BME culture solution containing 0.0052% DNaseI/10% equine blood serum, and filtered with a cell mesh-strainer (diameter=70 μm; Becton Dickinson). […]
After the incubation, the aggregates were washed with a phosphate buffer (PBS), and immobilized by 4% paraformaldehyde (Wako, 162-16065) (at room temperature, for 15 minutes). […] Thereafter, the aggregates were repeatedly washed well with PBS, and carefully embedded using glycerol (Merck) for fluorescence microscope observation so as to avoid damage.
After careful observation using a confocal laser microscope (TCS-SP5, Leica), the migratory distance (μm) of the nerve cells from the marginal zone of the cerebellum granule cell aggregates was measured for each cell group. […] Further, an average migratory distance (μm) was calculated and expressed as average migratory distance (μm)±standard deviation. […]

[2] = tested on: Lis1+/− mouse embryonic fibroblasts (MEF); experiment: Change in LIS1 protein amount in cells by SNJ-1945 (western blotting); type: cell-based; details: Lis1+/− MEF treated with SNJ-1945, western blotting, FIG. 1
Experimental: Fibroblasts (MEF; mouse embryonic fibroblasts) were established from five each of LIS1 gene hetero-deficient and wild-type mice (12.5- to 14.5-day-old embryos). The fibroblasts were established as follows. Pregnant mice were killed by cervical fracture, and the mouse embryos were immediately isolated under a germ-free condition. After the heads and visceral tissues were removed with tweezers, the mouse embryos were dissected with scissors. 10 ml of Trypsin-EDTA (Gibco, 25200) was added to each dissected tissue fraction, and the resulting liquid was placed in a 50 ml plastic tube (Nunc, 373687) to be subjected to 30-minute incubation at 37° C. After incubation, 10 ml of fetal bovine serum (Equitech-Bio, Inc., SFBM30-1798) was added, followed by pipetting with a 10 ml pipette (Nunc, 159633), thereby isolating the cells. After the cells were allowed to stand at room temperature for 5 minutes, the supernatant was collected. […]
Using the cells, the influence of SNJ-1945 on the LIS protein amount in each cell was analyzed as follows. […] After determination of protein quantity, 10 μg of protein was placed on each lane. After isolation using a 10% acrylic gel (SDS-PAGE), the protein was transferred to an Immobilon membrane (Millipore, IPVH00010), and LIS and DIC (dynein intermediate chain: reflecting the dynein amount) were detected. […] was detected to be used as a protein amount reference. […]

SMILES: COCCOCCOC(=O)N[C@@H](CC(C)C)C(=O)N[C@@H](Cc1ccccc1)C(=O)C(=O)NC1CC1 [compound 17, ((1S)-1-((((1S)-1-Benzyl-2,3-dioxo-3-(cyclopropylamino)propyl)amino)carbonyl)-3-methylbutyl)carbamic acid 5-methoxy-3-oxapentyl ester]
- migration capability of nerve cells [1]: the recovery of migration capability was observed
- LIS protein amount in cells [2]: the decrease in the LIS protein amount was recovered

Reference: patent publication US9539298B2, “Lissencephaly therapeutic agent” (OSAKA CITY UNIVERSITY, priority 2010, dated 2017)
